The values that follow come from PubChem BioAssay AID2005 (Sanford-Burnham Center for Chemical Genomics, 2009).

Usually inhibition stands for the change of the read-out against control, counted positive when it falls.

The test can be described thus: compounds lowering EGFP fluorescence in F442A cells, dose response, counter-screen for p/CIP destabilizer project (AID 2005).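 Note: cells express EGFP alone from a CMV promoter as a counter screen for p/CIP-EGFP.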 To be noted: F442A EGFP cells, EGFP fluorescence, 16 h, stronger effect = higher value. (A counterscreen serves to expose hits that act by an unwanted route or on another target.)

The source made the active and inactive calls.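 Rule for the calls: active = plate Z score at or below -3, or inhibition of at least 30% at 20 µM; inactive = the rest.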

As to `CCC(CC)NC(=O)COC(=O)CCC(=O)c1ccc(Cl)cc1`, the inhibition runs as follows: (EGFP decrease, at 10 µM) 5.2%; (at 20 µM) 24.9% (inactive).

In the case of `COc1ccc(-c2cc(C(F)(F)F)nc(N3CCN(C)CC3)n2)cc1OC`, the inhibition is, setting by setting: (EGFP decrease, at 10 µM) 8.9%; (at 20 µM) 8% (inactive).

As to `S=c1[nH]nc(COc2ccccc2)n1/N=C/c1ccc(Cl)cc1Cl`, the inhibition is 13.4% (EGFP decrease, at 10 µM) and 9.7% (inactive) (at 20 µM).

In the case of `O=C(NC(=S)NCc1ccccc1)c1ccc(Br)o1`, the inhibition was 23.8% (EGFP decrease, at 10 µM) and 19.8% (inactive) (at 20 µM).

As for `CC1(C)C(=O)Nc2ccccc2N1C(=O)COc1ncnc2c(Cl)cc(Cl)cc12`, the inhibition runs as follows: (EGFP decrease, at 10 µM) 18.4%; (at 20 µM) 17.9% (inactive).

On to `CC(=O)Nc1ccc(SCC(=O)Nc2ccccc2Oc2ccccc2)cc1`, for which the inhibition was 21.8% (EGFP decrease, at 10 µM) and 14.4% (inactive) (at 20 µM).

Take `Cc1ccc(S(=O)(=O)Oc2ccc(/C=N/NC(=O)c3nn(C)cc3Cl)cc2)cc1`: the inhibition was 17.3% (EGFP decrease, at 10 µM) and 17.2% (inactive) (at 20 µM).

As for `COC(=O)c1ccc(-c2ccc(CNCC(O)c3ccccc3)o2)cc1` (stereo not given), the inhibition reads like this: (EGFP decrease, at 10 µM) 8.8%; (at 20 µM) 7.1% (inactive).

For `Cc1ccc2[nH]c3c(c2c1)CCCC3=O`, the inhibition (EGFP decrease, at 10 µM) worked out at 28.5% and the inhibition (at 20 µM) is 27.9% (inactive).

Take `COc1ccc2[nH]cc(CC(=O)O)c2c1`: the inhibition by setting is: (EGFP decrease, at 10 µM) 39.2%; (at 20 µM) 23.6% (inactive).

Turning to `COc1ccc(CNC(=O)C(C)Cc2ccccc2)cc1O` (stereo not given), the inhibition is 24.1% (EGFP decrease, at 10 µM) and 14.7% (inactive) (at 20 µM).

As to `c1ccc(C2CC3CC4(CCCC4)N2O3)cc1` (stereo not given), the inhibition is, setting by setting: (EGFP decrease, at 10 µM) 17.2%; (at 20 µM) -10.7% (inactive).

On to `c1ccc(-c2cn3c(n2)CCc2ccc4cccnc4c2-3)cc1`, for which the inhibition (EGFP decrease, at 10 µM) was -17.2% and the inhibition (at 20 µM) is -5% (inactive).

On to `CCS(=O)(=O)N1CCN(c2nc(-c3ccccc3)cs2)CC1`, for which the inhibition was 13.7% (EGFP decrease, at 10 µM) and 15.1% (inactive) (at 20 µM).

For the compound `Cc1ccc(S(=O)(=O)CCC(=O)OCC(=O)c2c[nH]c3ccccc23)cc1`, the inhibition is 10.1% (EGFP decrease, at 10 µM) and 19.8% (inactive) (at 20 µM).

Regarding `Cc1nc2sc(C(c3cccc(F)c3)N3CC(C)OC(C)C3)c(O)n2n1` (stereo not given), the inhibition (EGFP decrease, at 10 µM) was 6.2% and the inhibition (at 20 µM) was 30%.

For `CC(C)CC(=O)Nc1ncnc2c1C(=O)CC(C)(C)C2`, the inhibition is 11.5% (EGFP decrease, at 10 µM) and 12.2% (inactive) (at 20 µM).

Take `O=C(NNS(=O)(=O)c1ccc(F)cc1)C1CCN(S(=O)(=O)c2ccccc2)CC1`: the inhibition runs as follows: (EGFP decrease, at 10 µM) -22.3%; (at 20 µM) -6.1% (inactive).

For `O=C(O)C1=C[C@H](c2cccs2)C[C@H](OCc2ccc(CO)cc2)O1`, the inhibition (EGFP decrease, at 10 µM) stood at 3.6% and the inhibition (at 20 µM) is -7.3% (inactive).

In the case of `CCOc1ccc(CC(=O)Nc2ccc(S(=O)(=O)Nc3cc(C)on3)cc2)cc1OCC`, the inhibition was 7.6% (EGFP decrease, at 10 µM) and 10.1% (inactive) (at 20 µM).

Take `CCOc1ccccc1OCc1nn2c(-c3ccc(C)cc3)nnc2s1`: the inhibition was -2% (EGFP decrease, at 10 µM) and -2.8% (inactive) (at 20 µM).

Consider `CC(NC(=O)CN(C)CC(=O)Nc1ccc(F)c(F)c1F)c1ccccc1` (stereo not given), for which the inhibition runs as follows: (EGFP decrease, at 10 µM) 8%; (at 20 µM) -8.6% (inactive).

In the case of `CCC(C(=O)NC1CCCCCC1)n1nc(C)n2c(cc3occc32)c1=O` (stereo not given), the inhibition (EGFP decrease, at 10 µM) amounted to 2.6% and the inhibition (at 20 µM) was 5.5% (inactive).

Turning to `O=C(CN1CCC(n2nnc3cc(F)ccc32)CC1)NC1CC1`, the inhibition was -7.1% (EGFP decrease, at 10 µM) and -1.4% (inactive) (at 20 µM).

Take `CC(=O)N/C(=C/c1ccc2c(c1)OCO2)C(=O)NCCCO`: the inhibition by setting is: (EGFP decrease, at 10 µM) 1.2%; (at 20 µM) 2% (inactive).

`CCN(Cc1nc2ccccc2c(=O)[nH]1)Cc1nc2ccsc2c(=O)[nH]1`: the inhibition (EGFP decrease, at 10 µM) turned out to be 26.2% and the inhibition (at 20 µM) was 22.6% (inactive).

Regarding `O=S(=O)(NCc1cn2ccccc2n1)c1cccs1`, the inhibition runs as follows: (EGFP decrease, at 10 µM) 8.4%; (at 20 µM) -3.1% (inactive).

Regarding `COc1ccccc1OCc1ccc(C(=O)n2nc(C)c(Cl)c2C)o1`, the inhibition by setting is: (EGFP decrease, at 10 µM) -1.3%; (at 20 µM) 2.6% (inactive).

On to `Cc1ccc(NC2CCCN(C(=O)c3ccccc3-c3ncc[nH]3)C2)cc1C` (stereo not given), for which the inhibition reads like this: (EGFP decrease, at 10 µM) -12.3%; (at 20 µM) 21.4% (inactive).

`CCN(Cc1ccccc1)C(=O)C(=O)c1cn(CC(=O)N2CCCC2)c2ccccc12`: the inhibition (EGFP decrease, at 10 µM) is 19.4% and the inhibition (at 20 µM) was 28.2% (inactive).

`Cc1ccc(S(=O)(=O)Nc2cc(C(C)C)c(O)cc2C)cc1`: the inhibition is -16.2% (EGFP decrease, at 10 µM) and -4.5% (inactive) (at 20 µM).

`c1ccc(-c2cc(-c3nnco3)c3ccccc3n2)nc1`: the inhibition reads like this: (EGFP decrease, at 10 µM) 13.9%; (at 20 µM) -6.2% (inactive).

For `Cc1nc2ccccc2c(=O)n1-c1ccc(Cl)c(Cl)c1`, the inhibition by setting is: (EGFP decrease, at 10 µM) 12.7%; (at 20 µM) 12.7% (inactive).

As for `Cc1sc2nc(COC(=O)c3ccc(N4CCCC(C)C4)c([N+](=O)[O-])c3)[nH]c(=O)c2c1C` (stereo not given), the inhibition was 26.5% (EGFP decrease, at 10 µM) and 11.2% (inactive) (at 20 µM).

`CCOc1ccc(N(CC(=O)Nc2cccc(Br)c2)S(C)(=O)=O)cc1`: the inhibition was 36.5% (EGFP decrease, at 10 µM) and 12.4% (inactive) (at 20 µM).

Regarding `CC(O)CNc1nc2c(c(=O)n(C)c(=O)n2C)n1Cc1cccc(Br)c1` (stereo not given), the inhibition runs as follows: (EGFP decrease, at 10 µM) 24.8%; (at 20 µM) 12.7% (inactive).

On to `NC(=O)C1CCCCc2c1[nH]c1ccc(Cl)cc21` (stereo not given), for which the inhibition (EGFP decrease, at 10 µM) was determined as 16.2% and the inhibition (at 20 µM) was 7.6% (inactive).

As for `CC(CCc1ccccc1)NC(=O)CNC(=O)COc1ccccc1` (stereo not given), the inhibition runs as follows: (EGFP decrease, at 10 µM) -4.8%; (at 20 µM) 28.2% (inactive).

On to `CCN(CC)C(=O)c1oc2ccc(S(=O)(=O)N3CC(C)CC(C)C3)cc2c1C` (stereo not given), for which the inhibition (EGFP decrease, at 10 µM) was 29.3% and the inhibition (at 20 µM) is 49.5%.

Consider `Cc1ccc(S(=O)(=O)N/N=C(\c2ccccc2)c2cccnc2)cc1`, for which the inhibition (EGFP decrease, at 10 µM) came out at 5.5% and the inhibition (at 20 µM) was 21.7% (inactive).

Turning to `O=C(CN1C(=O)c2ccccc2C1=O)N(CCO)Cc1ccccc1`, the inhibition by setting is: (EGFP decrease, at 10 µM) -7.7%; (at 20 µM) 16% (inactive).

Take `Cc1nn(CC(=O)NCCN2CCCCC2C)c(=O)c2cc(-c3ccccc3)nn12` (stereo not given): the inhibition is 17.6% (EGFP decrease, at 10 µM) and 1.6% (inactive) (at 20 µM).

Turning to `NC(=O)COC(=O)CSc1cccc2cccc(Cl)c12`, the inhibition is 24% (EGFP decrease, at 10 µM) and 10.6% (inactive) (at 20 µM).

With `CCC(Cc1ccccc1)NC(=O)Cn1cccc1C(=O)c1ccccc1` (stereo not given), the inhibition is, setting by setting: (EGFP decrease, at 10 µM) 9.1%; (at 20 µM) 15.9% (inactive).

For `Cc1ccc(CN(Cc2ccccc2)C(=S)NCC(=O)NCc2cccnc2)o1`, the inhibition by setting is: (EGFP decrease, at 10 µM) 5.8%; (at 20 µM) 6.9% (inactive).

Consider `CCn1cnc2cc(NCc3cccc(OC)c3O)ccc21`, for which the inhibition (EGFP decrease, at 10 µM) came out at 16.7% and the inhibition (at 20 µM) was 10.7% (inactive).

Take `O=C(CS(=O)CC(=O)Nc1ccccc1-c1ccccc1)Nc1ccc(F)cc1` (stereo not given): the inhibition reads like this: (EGFP decrease, at 10 µM) -0.9%; (at 20 µM) 13.9% (inactive).

Regarding `Cc1noc(C)c1CSc1nnc(C)c(=O)[nH]1`, the inhibition reads like this: (EGFP decrease, at 10 µM) -9.8%; (at 20 µM) -3.4% (inactive).

Take `CCC1=[N+]([O-])C(C)(/C(C)=N\O)N(O)C1(C)C` (stereo not given): the inhibition was -2.6% (EGFP decrease, at 10 µM) and -11% (inactive) (at 20 µM).

With `COc1cc(OC)cc(C(=O)NCC(=O)OCC(=O)N2CCc3ccccc32)c1`, the inhibition by setting is: (EGFP decrease, at 10 µM) 8.9%; (at 20 µM) 20.7% (inactive).

With `N/C(Cc1ccc([N+](=O)[O-])cc1)=N\OC(=O)COc1ccc2ccccc2c1`, the inhibition is 7% (EGFP decrease, at 10 µM) and -7.4% (inactive) (at 20 µM).

Turning to `Cc1c(N=NC2=C(O)CCCC2=O)c(=O)n(-c2ccccc2)n1C`, the inhibition is 6.5% (EGFP decrease, at 10 µM) and 21.3% (inactive) (at 20 µM).

As for `CCN1CCN(CCNC(=O)Nc2ccc([N+](=O)[O-])cc2)CC1`, the inhibition (EGFP decrease, at 10 µM) is -0.7% and the inhibition (at 20 µM) is 6.6% (inactive).

For the compound `Cc1cccc(N(CC(=O)NCCc2ccccc2)C(=O)c2csnn2)c1`, the inhibition reads like this: (EGFP decrease, at 10 µM) 4.8%; (at 20 µM) 17.2% (inactive).

With `O=C(NCCc1cccc(F)c1)C1CCCN(c2nc3ccccc3s2)C1` (stereo not given), the inhibition is 16.8% (EGFP decrease, at 10 µM) and 0.4% (inactive) (at 20 µM).

In the case of `O[C@@H](CNC[C@H](O)c1ccccc1)c1ccccc1`, the inhibition reads like this: (EGFP decrease, at 10 µM) 28%; (at 20 µM) -10.9% (inactive).

`Nc1cnn(C2OC(CO)C(O)C2O)c(=O)n1` (stereo not given): the inhibition was 18.6% (EGFP decrease, at 10 µM) and 22.1% (inactive) (at 20 µM).

In the case of `O=C(N/N=C\c1ccc2c(c1)OCO2)c1cncc(Br)c1`, the inhibition (EGFP decrease, at 10 µM) is 6.5% and the inhibition (at 20 µM) is 7.3% (inactive).

In the case of `Cc1ccc(-c2nc(CS(=O)CC(=O)NC3CCC(C)CC3)c(C)o2)cc1` (stereo not given), the inhibition (EGFP decrease, at 10 µM) turned out to be 27.4% and the inhibition (at 20 µM) is -4.5% (inactive).

`Nc1ccc(C(=O)N2N=C(c3ccccc3)CC2(O)C(F)(F)F)cc1` (stereo not given): the inhibition was 28.6% (EGFP decrease, at 10 µM) and 4.3% (inactive) (at 20 µM).

For the compound `CCCC(=O)C1=C(N(C)c2ccccc2)CC(C)(C)CC1=O`, the inhibition by setting is: (EGFP decrease, at 10 µM) 24.9%; (at 20 µM) 21.6% (inactive).

On to `COc1ccc(CN(CC(=O)NCc2ccc(F)cc2)C(=O)CCC(=O)Nc2ccccn2)cc1`, for which the inhibition by setting is: (EGFP decrease, at 10 µM) -14.2%; (at 20 µM) 16.1% (inactive).

Turning to `COc1ccc(CNC(=O)C(c2ccc(C)o2)N(Cc2cccs2)C(=O)Cc2cccs2)cc1` (stereo not given), the inhibition (EGFP decrease, at 10 µM) came out at 33.3% and the inhibition (at 20 µM) was 25.5% (inactive).

As to `O=C(CSc1ccc(Cl)cc1)OCc1nnc(-c2ccccc2)o1`, the inhibition (EGFP decrease, at 10 µM) was 7.2% and the inhibition (at 20 µM) was 13.1% (inactive).

For `Cc1cc(C(=O)Nc2cccc(O)c2)c(C)o1`, the inhibition is 7.4% (EGFP decrease, at 10 µM) and -9.8% (inactive) (at 20 µM).
